From patent US20260034112A1, “MULTI-CYCLIC IRAK1 AND IRAK4 INHIBITING COMPOUNDS AND USES THEREOF” (CHILDREN'S HOSPITAL MEDICAL CENTER, priority 2022, published 2026)
Where two headings read alike, the source gives them in different places. Values belong to the compound of their own block, whether it stands above or below them.

Legend:
IRAK4 [1] = biological target: T1, IRAK4 (Homo sapiens, UniProt Q9NWZ3); experiment: Reaction Biology Kinase Assay service, kinase inhibition (IC50); format: biochemical; settings: for LOG (IRAK4): log of IRAK4 IC50
T1 construct: purchased Reaction Biology (contract assay service)
T1 sequence (Q9NWZ3 1-460): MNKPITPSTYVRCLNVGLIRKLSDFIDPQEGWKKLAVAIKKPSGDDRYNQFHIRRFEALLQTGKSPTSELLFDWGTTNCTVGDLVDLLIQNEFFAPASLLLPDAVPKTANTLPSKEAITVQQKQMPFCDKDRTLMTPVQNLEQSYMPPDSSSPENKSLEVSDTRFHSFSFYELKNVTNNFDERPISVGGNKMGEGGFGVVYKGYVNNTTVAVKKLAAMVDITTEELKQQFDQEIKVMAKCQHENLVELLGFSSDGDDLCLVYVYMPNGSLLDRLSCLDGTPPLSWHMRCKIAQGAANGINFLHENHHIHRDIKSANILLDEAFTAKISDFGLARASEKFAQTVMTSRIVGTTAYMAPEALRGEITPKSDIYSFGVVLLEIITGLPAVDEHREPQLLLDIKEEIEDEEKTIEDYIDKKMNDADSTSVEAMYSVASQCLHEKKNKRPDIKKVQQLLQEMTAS

[2] = test system: NF-kB activity upon TLR2 stimulation with PAM3CSK4 in THP1-Blue NF-kB SEAP reporter cells; experiment: THP1-Blue NF-kB SEAP reporter assay, TLR2 stimulation with PAM3CSK4; format: cell-based, human; settings: for IC50: Homo sapiens, THP-1, unit nM, read-out: THP-1 NFkB PAM IC50; for IC50 / LOG (PAM): Table 1; for LOG (PAM): log of PAM IC50
IRAK1 [3] = biological target: T2, IRAK1 (Homo sapiens, UniProt P51617); experiment: Reaction Biology Kinase Assay service, kinase inhibition (IC50); format: biochemical; settings: for LOG (IRAK1): log of IRAK1 IC50
T2 construct: purchased Reaction Biology (contract assay service)

[4] = test system: NF-kB activity upon IL-1β stimulation (IL-1R) in THP1 NF-kB reporter cells; experiment: THP1 NF-kB reporter assay, IL-1β stimulation; format: cell-based, human; settings: for LOG (IL1B): log of IL1B IC50; for Suppression of NF-kB signaling through the IL-1 receptor: result in words
[5] = Survival in xenograft mice versus emavusertib and gilteritinib (FIG. 28); settings: compared to emavusertib (CA-4948) and gilteritinib
[6] = Plasma protein binding, human; format: in vitro ADME
IRAK1 [7] = biological target: T2, IRAK1; experiment: DiscoverX KINOMEscan Profiling Service, dissociation constant; format: binding
IRAK4 [8] = biological target: T1, IRAK4; experiment: as above; format: binding
AML(1714) cells = experiment: Xenograft of AML(1714) cells pre-treated in vitro for 21 days; format: in vivo; settings: AML(1714) pre-treated 500 nM 21 days, xenografted NSGS mice
[9] = test system: MDS/AML cell lines and patient-derived samples; experiment: Clonogenic assay (colony formation in methylcellulose); format: cell-based, human; settings: for Reduction in leukemia progenitor cell colony formation: 250 nM or 1 μM
[10] = Microsomal stability (Mic t½), rat; format: in vitro ADME
[11] = Pharmacokinetic analysis, drug concentration after PO dosing; settings: PO 30 mg/kg
[12] = Microsomal stability (Mic t½), mouse; format: in vitro ADME
[13] = test system: AML(64519), AML(0169), and MDS(76960) cells; experiment: Patient-derived AML/MDS xenografts treated orally; format: in vivo, NSGS mice; settings: PO daily, Compound 14 30 mg/kg or Compound 15 100 mg/kg
[14] = test system: IRAK1 phosphorylation in MDS/AML cells; experiment: Immunoblotting for phospho-IRAK1; format: cell-based, human; settings: THP1 and MDSL cells, 500 nM, 24 hours
PAMPA = format: in vitro ADME
THP1 cells = format: cell-based, human; settings: AML cells versus vehicle
[15] = Plasma protein binding, mouse; format: in vitro ADME
Solubility = format: physicochemical
[16] = Table 1, unit nM, read-out: Reaction Bio IRAK4 IC50
[17] = Table 1, unit nM, read-out: Reaction Bio IRAK1 IC50
[18] = Homo sapiens, THP-1, Table 1, unit nM, read-out: THP-1 NFkB IL1B IC50

T2 sequence (P51617 whole entry): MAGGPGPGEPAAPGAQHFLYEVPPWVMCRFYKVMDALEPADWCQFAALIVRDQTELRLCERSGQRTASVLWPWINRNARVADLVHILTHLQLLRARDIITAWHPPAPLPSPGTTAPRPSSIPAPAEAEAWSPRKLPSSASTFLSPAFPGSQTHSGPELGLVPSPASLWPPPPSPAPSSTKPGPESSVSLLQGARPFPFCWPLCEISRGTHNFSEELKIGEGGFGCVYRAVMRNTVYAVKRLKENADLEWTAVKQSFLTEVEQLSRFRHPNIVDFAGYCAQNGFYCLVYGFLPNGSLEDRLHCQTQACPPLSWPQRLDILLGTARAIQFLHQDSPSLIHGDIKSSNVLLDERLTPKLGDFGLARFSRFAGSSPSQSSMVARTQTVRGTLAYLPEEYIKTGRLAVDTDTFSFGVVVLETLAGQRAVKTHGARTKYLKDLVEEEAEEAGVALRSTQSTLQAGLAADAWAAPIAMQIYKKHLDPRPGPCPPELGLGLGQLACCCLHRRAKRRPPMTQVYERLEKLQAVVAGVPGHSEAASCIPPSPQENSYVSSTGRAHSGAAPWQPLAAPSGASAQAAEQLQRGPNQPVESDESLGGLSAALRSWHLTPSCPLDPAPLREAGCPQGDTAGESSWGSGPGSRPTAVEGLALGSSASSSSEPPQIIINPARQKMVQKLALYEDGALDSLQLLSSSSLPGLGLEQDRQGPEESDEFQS

- LOG (IRAK4) (IRAK4 [1]; Table 1): −0.20
- IC50 (IRAK4 [1]; [16]): 0.637 nM
- IC50 [2]: 3.3 nM
- LOG (IRAK1) (IRAK1 [3]; Table 1): 0.19
- IC50 (IRAK1 [3]; [17]): 1.54 nM
- IC50 [4, 18]: 15.1 nM
Structure (SMILES): CN(C)c1ccc2ncc(-c3cccc(N[C@H]4CNC[C@@H]4F)n3)n2n1 [Compound 7]
- LOG (PAM) [2]: 0.52
- LOG (IL1B) ([4]; Table 1): 1.18

Structure (SMILES): COc1cc2ncc(-c3nc(N[C@@H]4CCCNC4)c(F)cc3F)n2nc1C1CC1 [Compound 8]
- LOG (IRAK4) (IRAK4 [1]; Table 1): 0.19
- IC50 (IRAK4 [1]; [16]): 1.54 nM
- IC50 [2]: 62.9 nM
- LOG (PAM) [2]: 1.80
- Survival in xenograft mice [5]: enhanced survival
- LOG (IRAK1) (IRAK1 [3]; Table 1): 1.43
- IC50 (IRAK1 [3]; [17]): 27.2 nM
- IC50 [4, 18]: 58.7 nM
- LOG (IL1B) ([4]; Table 1): 1.77

- LOG (IRAK4) (IRAK4 [1]; Table 1): −0.30
- IC50 (IRAK4 [1]; [16]): 0.5 nM
- IC50 [2]: 14.2 nM
- LOG (IRAK1) (IRAK1 [3]; Table 1): 1.32
- IC50 (IRAK1 [3]; [17]): 21 nM
- IC50 [4, 18]: 25.9 nM
Structure (SMILES): CC(O)(c1cn2c(-c3cccc(N[C@H]4CNCC[C@@H]4F)n3)cnc2cn1)C(F)(F)F (stereo partly drawn) [Compound 9]
- LOG (PAM) [2]: 1.15
- LOG (IL1B) ([4]; Table 1): 1.41

- LOG (IRAK4) (IRAK4 [1]; Table 1): 0.17
- IC50 (IRAK4 [1]; [16]): 1.49 nM
- IC50 [2]: 17.3 nM
- LOG (IRAK1) (IRAK1 [3]; Table 1): 1.52
- IC50 (IRAK1 [3]; [17]): 33 nM
- IC50 [4, 18]: 87.5 nM
Structure (SMILES): CC(C)(O)c1cn2c(-c3nc(N[C@H]4CNCC[C@@H]4F)c(F)cc3F)cnc2cn1 [Compound 10]
- LOG (PAM) [2]: 1.24
- LOG (IL1B) ([4]; Table 1): 1.94

- LOG (IRAK4) (IRAK4 [1]; Table 1): 0.22
- IC50 (IRAK4 [1]; [16]): 1.67 nM
- IC50 [2]: 280 nM
- LOG (IRAK1) (IRAK1 [3]; Table 1): 2.34
- IC50 (IRAK1 [3]; [17]): 220 nM
- IC50 [4, 18]: 419 nM
Structure (SMILES): COc1cc2ncc(-c3cccc(N[C@H]4CNCC[C@@H]4F)n3)n2nc1C1CC1 [Compound 11]
- LOG (PAM) [2]: 2.45
- LOG (IL1B) ([4]; Table 1): 2.62

- IC50 [2]: 13.6 nM
- IC50 [4, 18]: 15.4 nM
Structure (SMILES): COc1cc2ncc(-c3cccc(N[C@H]4CNCC[C@@H]4F)n3)n2cc1C(C)(C)O [Compound 13]
- LOG (PAM) [2]: 1.13
- LOG (IL1B) ([4]; Table 1): 1.19

Structure (SMILES): COc1ccc2ncc(-c3cccc(N[C@@H]4CCCNC4)n3)n2c1 [Compound 14]
- Plasma Prot Bind (% free - h) [6]: 26.5 % free
- Kd (IRAK1 [7]): 150 nM
- Kd (IRAK4 [8]): 5 nM
- Leukemic engraftment and AML development of pre-treated cells (AML(1714) cells): only partially suppressed
- Colony formation after in vitro exposure ([9]; AML(1714) cells, 500 nM for 21 days, then 250 live cells plated, 10 days): only partially suppressed
- Reduction in leukemia progenitor cell colony formation ([9]; MDS/AML cell lines): 60-75%
- Reduction in leukemia progenitor cell colony formation ([9]; all MDS/AML cell lines and patient-derived samples): approximately 75%
- Reduction in leukemia progenitor cell colony formation ([9]; patient-derived AML samples): 80-85%
- Tier 1 Mic t½ (r) [10]: >30 min
- IC50 (IRAK4 [1]; functional biochemical assay, read-out: IRAK4 IC50): 5 nM
- Suppression of TLR2-mediated activation of NF-kB ([2]; at 5 μM, THP1 cells): ~80%
- Mean Free Drug Concentration ([11]; 0.25 h): 336 nM
- Mean Total Drug Concentration ([11]; 0.25 h): 869 nM
- Mean Free Drug Concentration ([11]; 0.5 h): 360 nM
- Mean Total Drug Concentration ([11]; 0.5 h): 932 nM
- Mean Free Drug Concentration ([11]; 1 h): 309 nM
- Mean Total Drug Concentration ([11]; 1 h): 801 nM
- Mean Free Drug Concentration ([11]; 2 h): 217 nM
- Mean Total Drug Concentration ([11]; 2 h): 562 nM
- Mean Free Drug Concentration ([11]; 4 h): 101 nM
- Mean Total Drug Concentration ([11]; 4 h): 262 nM
- Mean Free Drug Concentration ([11]; 8 h): 30 nM
- Mean Total Drug Concentration ([11]; 8 h): 78 nM
- Mean Free Drug Concentration ([11]; 24 h): 0 nM
- Mean Total Drug Concentration ([11]; 24 h): 0 nM
- Tier 2 Mic t½ (m) [12]: N.D./25/N.D. min
- Median survival ([13]; NSGS mice engrafted with AML(0169), vehicle 29 days): 33 days
- Leukemic cell engraftment in the PB ([13]; AML(64519), AML(0169), MDS(76960) at day 40, 29, 48, versus vehicle): did not significantly suppress
- Phosphorylation of IRAK1 [14]: did not affect phosphorylation of IRAK1
- PAMPA (PAMPA): 746 10^−6 cm/s
- IRAK4:IRAK1 potency ratio (IRAK1 [3]; calculated from the IRAK1 and IRAK4 IC50): 100
- IC50 (IRAK1 [3]; functional biochemical assay, read-out: IRAK1 IC50): > 500 nM
- IC50 ([4]; THP1 NF-kB reporter cells, read-out: IC50 vs. IL-1β (NF-kB activation)): 227 nM
- Suppression of NF-kB signaling through the IL-1 receptor ([4]; THP1 NF-kB reporter cells): completely suppress
- Effect on genes of the IRAK1/4 AML signature (THP1 cells): unremarkable effect
- Plasma Prot Bind (% free - ms) [15]: 38.6 % free
- Solubility (Solubility): >48 mg/mL

Structure (SMILES): C=CC(=O)Nc1cccc(C(=O)Nc2ccc(NC(=O)c3cccc(-c4ccn[nH]4)n3)cc2)c1 [JH-X-119-01]
- Suppression of NF-kB signaling through TLR2 ([2]; THP1 NF-kB reporter cells, result in words): does not inhibit signaling through either receptor
- Suppression of NF-kB signaling through the IL-1 receptor ([4]; THP1 NF-kB reporter cells): does not inhibit signaling through either receptor
